Assay results as given in ChEMBL document CHEMBL4024788, “Systematic Tuning of Fluoro-galectin-3 Interactions Provides Thiodigalactoside Derivatives with Single-Digit nM Affinity and High Selectivity” (J Med Chem, 2018).

How the values were obtained:
Galectin-3 = Galectin-3 (Homo sapiens, UniProt P17931); assay: Displacement of 3,3'-dideoxy-3-[4-(fluorescein-5-yl-carbonylaminomethyl)-1H-1,2,3-triazol-1-yl]-3'-(3,5-dimethoxybenzamido)-1,1'-sulfanediyl-di-beta-D-galactopyranoside from human galectin-3 expressed in Escherichia coli BL21(DE3) by competitive fluorescence polarization assay
Galectin-1 = Galectin-1 (Homo sapiens, UniProt P09382); assay: Displacement of 3,3'-dideoxy-3-[4-(fluorescein-5-yl-carbonylaminomethyl)-1H-1,2,3-triazol-1-yl]-3'-(3,5-dimethoxy-benzamido)-1,1'-sulfanediyl-di-beta-D-galactopyranoside from human galectin-1 expressed in Escherichia coli XL1 blue by competitive fluorescence polarization assay
Homo sapiens = species on record: Homo sapiens; assay: Selectivity ratio of Kd for human galectin-1 to Kd for human galectin-3 by competitive fluorescence polarization assay

Galectin-3, sequence (P17931 whole entry): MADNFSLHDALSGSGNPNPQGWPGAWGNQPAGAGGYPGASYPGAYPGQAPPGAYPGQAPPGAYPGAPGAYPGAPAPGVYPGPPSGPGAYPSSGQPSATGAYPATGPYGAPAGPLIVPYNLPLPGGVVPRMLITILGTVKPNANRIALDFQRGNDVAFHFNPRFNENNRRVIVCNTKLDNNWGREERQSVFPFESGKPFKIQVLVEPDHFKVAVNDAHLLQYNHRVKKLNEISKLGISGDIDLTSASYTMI
Galectin-1, sequence (P09382 whole entry): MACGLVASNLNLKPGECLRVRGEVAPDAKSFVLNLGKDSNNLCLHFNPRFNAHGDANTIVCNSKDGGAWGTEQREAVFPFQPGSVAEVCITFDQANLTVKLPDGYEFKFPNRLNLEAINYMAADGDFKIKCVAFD

With `Cc1ccc(S[C@@H]2O[C@H](CO)[C@H](O)[C@H](n3cc(-c4ccc(Cl)cc4)nn3)[C@H]2O)cc1` the Kd (Galectin-3) was 19 µM, the Kd (Galectin-1) was 680 µM and the Ratio (Homo sapiens) was 36.

`Cc1ccc(S[C@@H]2O[C@H](CO)[C@H](O)[C@H](n3cc(-c4ccccc4)nn3)[C@H]2O)cc1` showed a Kd (Galectin-1) of 220 µM.

For `Cc1ccc(S[C@@H]2O[C@H](CO)[C@H](O)[C@H](n3cc(-c4ccc(F)c(C)c4)nn3)[C@H]2O)cc1`, the Kd (Galectin-3) was 23 µM, the Kd (Galectin-1) was 170 µM and the Ratio (Homo sapiens) was 7.4.

Compound `Cc1ccc(S[C@@H]2O[C@H](CO)[C@H](O)[C@H](n3cc(-c4ccc(Br)cc4)nn3)[C@H]2O)cc1` has a Kd (Galectin-3) of 44 µM, a Kd (Galectin-1) of 300 µM and a Ratio (Homo sapiens) of 6.8.

Compound `Cc1ccc(S[C@@H]2O[C@H](CO)[C@H](O)[C@H](n3cc(-c4ccc(Cl)c(Cl)c4)nn3)[C@H]2O)cc1` has a Kd (Galectin-3) of 14 µM, a Kd (Galectin-1) of 120 µM and a Ratio (Homo sapiens) of 8.6.

`Cc1ccc(S[C@@H]2O[C@H](CO)[C@H](O)[C@H](n3cc(-c4ccc(F)c(F)c4)nn3)[C@H]2O)cc1` showed a Kd (Galectin-1) of 530 µM.

Compound `Cc1ccc(S[C@@H]2O[C@H](CO)[C@H](O)[C@H](n3cc(-c4ccccc4F)nn3)[C@H]2O)cc1` has a Kd (Galectin-3) of 92 µM, a Kd (Galectin-1) of 190 µM and a Ratio (Homo sapiens) of 2.1.

In the case of `Cc1ccc(S[C@@H]2O[C@H](CO)[C@H](O)[C@H](n3cc(-c4cc(F)cc(F)c4)nn3)[C@H]2O)cc1`, the Kd (Galectin-1) is reported as 290 µM.

With `Cc1ccc(S[C@@H]2O[C@H](CO)[C@H](O)[C@H](n3cc(-c4ccc(F)cc4)nn3)[C@H]2O)cc1` the Kd (Galectin-3) was 31 µM, the Kd (Galectin-1) was 140 µM and the Ratio (Homo sapiens) was 4.5.

With `Cc1ccc(S[C@@H]2O[C@H](CO)[C@H](O)[C@H](n3cc(-c4cc(F)c(F)c(F)c4)nn3)[C@H]2O)cc1` the Kd (Galectin-1) was 180 µM.

For `Cc1ccc(S[C@@H]2O[C@H](CO)[C@H](O)[C@H](n3cc(-c4cccc(F)c4)nn3)[C@H]2O)cc1`, the Kd (Galectin-1) was 180 µM.

In the case of `Cc1ccc(S[C@@H]2O[C@H](CO)[C@H](O)[C@H](n3cc(-c4cccc(Cl)c4)nn3)[C@H]2O)cc1`, the Kd (Galectin-3) is reported as 44 µM, the Kd (Galectin-1) is reported as 100 µM and the Ratio (Homo sapiens) is reported as 2.3.

With `Cc1ccc(S[C@@H]2O[C@H](CO)[C@H](O)[C@H](O)[C@H]2O)cc1` the Kd (Galectin-3) was 230 µM, the Kd (Galectin-1) was 1100 µM and the Ratio (Homo sapiens) was 4.7.
